In ChEMBL document CHEMBL1250449, “Aminoglycoside activity observed on single pre-translocation ribosome complexes” (Nat Chem Biol, 2010):
Values belong to the compound of their own block, whether it stands above or below them. Activity calls are given as the source filed them. The rule behind the calls is not given here. Numbered stars: 1 amine (or outer) side, 2 acyl side, 3 side chain; on linkers, the order of the positions; unused ones are H or OH. Bridge positions count the residues as written; N and C are the ends. Square brackets hold non-standard residues; d marks the D form. Peptide text beside a SMILES is read from it. * marks the point of attachment. X1 = NC1=N[C@@H]([C@H](N[*:1])C(=O)[*:2])C[C@H](O)N1; ΔAla(Z-3-ureido) = NC(=O)N/C=C(\N)C(=O)O; β3hOrn = NCCC[C@H](N)CC(=O)*; Dap = NC[C@H](N)C(=O)O

Legend:
[1] = tested on: Nucleic Acid; assay: Binding affinity to Escherichia coli 23S rRNA assessed as increase in classical-state occupancy by tRNA at 20 uM by smFRET; type: nucleic-acid assay; details: MRE600
[2] = tested on: Nucleic Acid; assay: Binding affinity to Escherichia coli 16S rRNA helix 44 assessed as tRNA translocation rate; type: nucleic-acid assay; details: MRE600
[3] = tested on: Nucleic Acid; assay: Binding affinity to Escherichia coli 16S rRNA helix 44 assessed as classical-state occupancy by tRNA; type: nucleic-acid assay; design: concentration or dose not given beside the values; details: MRE600
[4] = tested on: Nucleic Acid; assay: Binding affinity to Escherichia coli 23S rRNA G2553C mutant assessed as increase in classical-state occupancy by tRNA at 20 uM by smFRET; type: nucleic-acid assay; details: MRE600
[5] = tested on: Nucleic Acid; assay: Binding affinity to Escherichia coli 16S rRNA helix 44 assessed as increase in classical-state occupancy by tRNA at 100 nM by smFRET; type: nucleic-acid assay; details: MRE600
[6] = tested on: Nucleic Acid; assay: Binding affinity to Escherichia coli 23S rRNA assessed as decrease in classical-state occupancy by tRNA at 20 uM by smFRET; type: nucleic-acid assay; design: scale not given: the % may be the effect or the level left; details: MRE600
[7] = tested on: Nucleic Acid; assay: Binding affinity to Escherichia coli 16S rRNA helix 44 assessed as tRNA translocation rate at 100 nM (Rvb= 1.57+/-0.05 /sec); type: nucleic-acid assay; details: MRE600
[8] = tested on: Nucleic Acid; assay: Binding affinity to Escherichia coli 16S rRNA helix 44 assessed as reduction in rate of tRNA exit from classical state at 100 nM; type: nucleic-acid assay; details: MRE600
[9] = tested on: Nucleic Acid; assay: Binding affinity to Escherichia coli 16S rRNA helix 44 assessed as classical-state occupancy by tRNA at 100 nM (Rvb= 62.4+/-1.1%); type: nucleic-acid assay; details: MRE600
[10] = tested on: Nucleic Acid; assay: Binding affinity to Escherichia coli 16S rRNA helix 44 assessed as reduction in rate of tRNA translocation at 100 nM; type: nucleic-acid assay; details: MRE600
[11] = tested on: Nucleic Acid; assay: Binding affinity to Escherichia coli 23S rRNA H69 assessed as classical-state occupancy by tRNA at 20 uM (Rvb= 62.4+/-1.1%); type: nucleic-acid assay; details: MRE600
[12] = tested on: Nucleic Acid; assay: Binding affinity to Escherichia coli 16S rRNA helix 44 assessed as decrease in classical-state occupancy by tRNA at 20 uM by smFRET; type: nucleic-acid assay; design: scale not given: the % may be the effect or the level left; details: MRE600
[13] = tested on: Nucleic Acid; assay: Binding affinity to Escherichia coli 23S rRNA H69 assessed as tRNA translocation rate at 20 uM (Rvb= 1.57+/-0.05 /sec); type: nucleic-acid assay; details: MRE600
[14] = target: T1, Bacterial 70S ribosome (Bacteria) (UniProt P0A7V0+P60723+P0AG67+P0A7R5+P0A7R9+P0A7S3+P0A7S9+P0AG59+P0ADZ4+P0A7T3+P0AG63+P0A7T7+P0A7U3+P0A7U7+P68679+P0A7V3+P0A7V8+P0A7W1+P02358+P02359+P0A7W7+P0A7X3+P0A7J3+P0A7J7+P0AA10+P0ADY3+P02413+P0ADY7+P0AG44+P0C018+P0A7K6+P0A7L0+P0A7L3+P0AG48+P61175+P0ADZ0+P60624+P68919+P0A7L8+P0A7M2+P0A7M6+P60422+P0AG51+P0A7N1+P0A7M9+P0A7N4+P0A7N9+P0A7P5+P0A7Q1+Q2EEQ2+P0A7Q6+P60438+P62399+P0AG55+P0A7K2); assay: Binding affinity to Escherichia coli ribosomal pre-translocation complex assessed as decreased rate of EF-G-catalyzed translocation by tRNA at 100 nM; details: MRE600
[15] = target: T1, Bacterial 70S ribosome (Bacteria); assay: Binding affinity to Escherichia coli ribosomal pre-translocation complex assessed as stabilization of hybrid-state occupancy by tRNA at 2 uM; details: MRE600
[16] = target: T1, Bacterial 70S ribosome (Bacteria); assay: Binding affinity to Escherichia coli ribosomal pre-translocation complex assessed as stabilization of hybrid-state occupancy by tRNA at <2 uM; details: MRE600
[17] = target: T1, Bacterial 70S ribosome (Bacteria); assay: Binding affinity to Escherichia coli ribosomal pre-translocation complex assessed as decreased rate of EF-G-catalyzed translocation fraction by tRNA at 100 nM; details: MRE600
[18] = tested on: Nucleic Acid; assay: Binding affinity to Escherichia coli ribosomal pre-translocation complex assessed as classical-state occupancy by tRNA at 200 uM (Rvb= 62.4+/-1.1%); type: nucleic-acid assay; details: MRE600
[19] = target: T1, Bacterial 70S ribosome (Bacteria); assay: Binding affinity to Escherichia coli ribosomal pre-translocation complex assessed as decreased rate of EF-G-catalyzed translocation by tRNA at <2 uM; details: MRE600
[20] = target: T1, Bacterial 70S ribosome (Bacteria); assay: Binding affinity to Escherichia coli ribosomal pre-translocation complex assessed as stabilization of classical-state occupancy by tRNA at 200 uM; details: MRE600
[21] = target: T1, Bacterial 70S ribosome (Bacteria); assay: Binding affinity to Escherichia coli ribosomal pre-translocation complex assessed as stabilization of hybrid-state occupancy by tRNA at 100 nM; details: MRE600
[22] = tested on: Nucleic Acid; assay: Binding affinity to Escherichia coli ribosomal pre-translocation complex assessed as tRNA translocation rate at 200 uM (Rvb= 1.57+/-0.05 /sec); type: nucleic-acid assay; details: MRE600
[23] = tested on: Nucleic Acid; assay: Binding affinity to Escherichia coli 16S rRNA helix 44 assessed as increase in classical-state occupancy by tRNA at 20 nM to 200 uM by smFRET; type: nucleic-acid assay; details: MRE600
[24] = tested on: Nucleic Acid; assay: Binding affinity to Escherichia coli 16S rRNA helix 44 assessed as increase in classical-state occupancy by tRNA at >=20 uM by smFRET; type: nucleic-acid assay; details: MRE600
[25] = tested on: Escherichia coli; assay: Stabilization of classical-state occupancy by tRNA in ribosomal pre-translocation complex in Escherichia coli MRE600 expressing 16S A1408G and 23S G2553C rRNA mutant by smFRET; type: functional
[26] = tested on: Nucleic Acid; assay: Binding affinity to Escherichia coli 23S rRNA assessed as stabilization of classical state occupancy by tRNA by smFRET; type: nucleic-acid assay, MRE600
[27] = tested on: Nucleic Acid; assay: Binding affinity to Escherichia coli 16S rRNA helix 44 assessed as stabilization of classical state occupancy by tRNA by smFRET; type: nucleic-acid assay, MRE600
[28] = tested on: Nucleic Acid; assay: Binding affinity to Escherichia coli 16S rRNA helix 44 assessed as increase in classical-state occupancy by tRNA by smFRET; type: nucleic-acid assay; details: MRE600, TDE = time-dependent effect
[29] = tested on: Nucleic Acid; assay: Binding affinity to Escherichia coli 16S A1408G rRNA assessed as increase in classical-state occupancy by tRNA by smFRET; type: nucleic-acid assay; details: MRE600
[30] = tested on: Nucleic Acid; assay: Binding affinity to Escherichia coli 23S rRNA G2553C mutant assessed as increase in classical-state occupancy by tRNA by smFRET; type: nucleic-acid assay; details: MRE600
[31] = tested on: Escherichia coli; assay: Increase in hybrid-state occupancy by tRNA in ribosomal pre-translocation complex in Escherichia coli MRE600 by smFRET method in presence of 10 uM neomycin; type: functional
[32] = tested on: Escherichia coli; assay: Increase in hybrid-state occupancy by tRNA in ribosomal pre-translocation complex in Escherichia coli MRE600 by smFRET method in presence of 20 uM neomycin; type: functional, organism-based
[33] = tested on: Nucleic Acid; assay: Binding affinity to Escherichia coli 23S rRNA H69 assessed as increase in classical-state occupancy by tRNA by […]; type: nucleic-acid assay; details: MRE600
[34] = tested on: Nucleic Acid; assay: Binding affinity to Escherichia coli 16S rRNA helix 44 assessed as increase in classical-state occupancy by tRNA by […]; type: nucleic-acid assay, MRE600
[35] = tested on: Escherichia coli; assay: Increase in classical-state occupancy by tRNA in ribosomal pre-translocation complex in Escherichia coli MRE600 by smFRET method in presence of 200 nM neomycin; type: functional, organism-based

Structure (SMILES): CN[C@@H]1[C@@H](O)[C@@H](O[C@@H]2[C@@H](O)[C@H](O[C@H]3O[C@H]([C@@H](C)NC)CC[C@H]3N)[C@@H](N)C[C@H]2N)OC[C@]1(C)O
Activity [1]: 5%
Activity [2]: 0.42 s⁻¹
Activity [3]: 67.2%
Activity [4]: 14%

Structure (SMILES): NC[C@@H]1O[C@H](O[C@H]2[C@@H](O)[C@H](O[C@@H]3[C@@H](O)[C@H](N)C[C@H](N)[C@H]3O[C@H]3O[C@H](CO)[C@@H](O)[C@H](O)[C@H]3N)O[C@@H]2CO)[C@H](N)[C@@H](O)[C@@H]1O
Activity [1]: 2%
Activity [2]: 0.51 s⁻¹
Activity [3]: 63.9%
Activity [4]: 12%

Structure (SMILES): NC[C@H]1O[C@H](O[C@H]2[C@H](O)[C@@H](O[C@H]3O[C@H](CO)[C@@H](O)[C@H](N)[C@H]3O)[C@H](N)C[C@@H]2N)[C@H](N)[C@@H](O)[C@@H]1O [BEKANAMYCIN]
Activity [23]: Dose-dependent effect
Activity [24]: Active
Activity [25]: 10%
Activity [1]: 8%
EC50 [26]: 300 nM
EC50 [27]: 300 nM
Activity [2]: 0.27 s⁻¹
Activity [3]: 69.6%
Activity [28]: tde
Activity [29]: inactive
Activity [30]: 25%
Activity [4]: 25%

Structure (SMILES): NC[C@@H]1O[C@@H](O[C@H]2[C@H](O)[C@@H](O[C@H]3O[C@H](CO)[C@@H](O)[C@H](N)[C@H]3O)[C@H](N)C[C@@H]2N)[C@@H](O)[C@H](O)[C@H]1O [KANAMYCIN A]
Activity [23]: Dose-dependent effect
Activity [24]: Active
Activity [25]: 10%
Activity [1]: 8%
EC50 [26]: 300 nM
EC50 [27]: 300 nM
Activity [2]: 0.27 s⁻¹
Activity [3]: 69.6%
Activity [28]: tde
Activity [29]: inactive
Activity [30]: 25%
Activity [4]: 25%

More lines, main results first:

Activity [1]: 5%
Activity [2]: 0.42 s⁻¹
Activity [3]: 67.2%
Activity [4]: 18%
Structure (SMILES): CN[C@@H]1[C@@H](O)[C@@H](O[C@@H]2[C@@H](O)[C@H](O[C@H]3O[C@H]([C@@H](C)N)CC[C@H]3N)[C@@H](N)C[C@H]2N)OC[C@]1(C)O

Activity [5]: 6%
Activity [6]: 10%
Activity [7]: 0.31 s⁻¹
fold change (FC) [8]: 1.5
Activity [9]: 70.3%
fold change (FC) [10]: 3
Activity [11]: 52%
Activity [12]: 10%
Activity [13]: 0.06 s⁻¹
Structure (SMILES): NC[C@@H]1O[C@H](O[C@H]2[C@@H](O)[C@H](O[C@@H]3[C@@H](O)[C@H](N)C[C@H](N)[C@H]3O[C@H]3O[C@H](CN)[C@@H](O)[C@H](O)[C@H]3N)O[C@@H]2CO)[C@H](N)[C@@H](O)[C@@H]1O

fold change (FC) [14]: 1.5
Activity [15]: Active
Activity [16]: Active
fold change (FC) [17]: 2
Activity [18]: 46.8%
Activity [19]: Active
Activity [20]: Active
Activity [21]: 10%
Activity [22]: 0.04 s⁻¹
Structure (SMILES): NCCC[C@H](N)CC(=O)N[C@H]1CNC(=O)[C@H]([C@H]2C[C@H](O)NC(N)=N2)NC(=O)/C(=C/NC(N)=O)NC(=O)[C@H](CO)NC(=O)[C@H](CO)NC1=O (β3hOrn-[Dap]SS[ΔAla(Z-3-ureido)][X1]; lactam 1-C)

Activity [33]: > 1 µM
EC50 [34]: 100 nM
Structure (SMILES): COc1ccc(C[C@H](N)C(=O)N[C@H]2[C@@H](O)[C@H](n3cnc4c(N(C)C)ncnc43)O[C@@H]2CO)cc1 [PUROMYCIN]
Activity [31]: 25%
Activity [32]: Active
Activity [35]: Active
